Test results as given in US12649750B2, “Macrocyclic compounds, compositions, and methods of using thereof” (Sionna Therapeutics Inc., priority 2022, dated 2026).

Key:
[1] = target: T1, NBD1 (Homo sapiens, UniProt P13569); test: Aggregation analysis using differential static light scattering (DSLS), thermal stability of NBD1 (ΔTagg); assay type: binding; settings: ΔTagg versus DMSO control, NBD1 0.2 mg/ml
T1 construct: Purified recombinant NBD1 was produced using previously described methods; made in house
Summary of the method: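 Stabilisation is measured as the shift in aggregation onset of recombinant NBD1 (0.2 mg/ml, 2 mM ATP, 5 mM MgCl2, pH7.6) exposed to compound. Images are taken every 0.5° C. while heating at 1° C. per minute, and the inflection-point Tagg is corrected by the DMSO mean.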

[2] = target: T2, CFTR (Homo sapiens, UniProt P13569, DEL508-508); test: TECC24 AUC fold over DMSO @10 μM, CFTR-mediated transepithelial chloride transport in CF-HBE cells; assay type: cell-based; settings: test agent AUC divided by DMSO vehicle AUC, primary CF-HBE cells, ΔF508 homozygous donor, 48 hours incubation
T2 construct: Primary human bronchial epithelial cells from a ΔF508 homozygous CF donor; host or cells: primary human bronchial epithelial cells (CF-HBE), ΔF508 homozygous donor
Description: Example 387. TECC24 AUC Fold Over DMSO @10 μM
The effects of a test agent on CFTR-mediated transepithelial chloride transport is measured using TECC24 recording analysis. Test agents are solubilized in DMSO. Solubilized test agents are mixed with incubation medium containing DMEM/F12, Ultroser G (2%; Crescent Chemical, catalog #67042), Hyclone Fetal Clone II (2%; GE Healthcare, catalog #SH30066.02), bovine brain extract (0.25%; Lonza, catalog #CC-4098), insulin (2.5 μg/mL), IL-13 (10 ng/mL), hydrocortisone (20 nM), transferrin (2.5 μg/mL), triiodothyronine (500 nM), ethanolamine (250 nM), epinephrine (1.5 μM), phosphoethanolamine (250 nM), and retinoic acid (10 nM). Primary human bronchial epithelial cells from a ΔF508 homozygous CF donor (CF-HBE cells; from University of North Carolina Cystic Fibrosis Tissue Procurement Center), grown on Transwell HTS 24-well cell culture inserts (Costar, catalog #3378), are exposed to test agents or controls dissolved in incubation medium. The CF-HBE cells are cultured at 36.5° C. for 48 hours before TECC24 recordings are performed in the presence or absence of test agent, a positive control or vehicle (DMSO).
Following incubation, the transwell cell culture inserts containing the test agent or control-treated CF-HBE cells are loaded onto a TECC24 apparatus (TECC v7 or MTECC v2; EP Design) to record the transepithelial voltage (VT) and resistance (TEER) using 4 AgCl electrodes per well configured in current-clamp mode. The apical and basolateral bath solutions both contain (in mM) 140 NaCl, 5 KCl, 2 CaCl2, 1 MgCl2, 10 Hepes, and 10 glucose (adjusted to pH 7.4 with NaOH). To inhibit basal Na+ absorption, the ENaC inhibitor benzamil (10 μM) is added to the bath. Then, the adenylate cyclase activator, forskolin (10 μM), is added to the bath to activate CFTR. The forskolin-stimulated Cl— transport is halted by addition of CFTR inhibitor-172 (20 μM) to the bath at the end of the experiment to confirm specificity. VT and TEER recordings are digitally acquired at routine intervals using TECC or MTECC software (EP Design). VT and TEER are transformed into equivalent transepithelial Cl— current (IEQ), and the Area Under the Curve (AUC) of the IEQ time course between forskolin and CFTR inhibitor-172 addition is generated using Excel (Microsoft). Efficacy is expressed as the ratio of the test agent AUC divided by vehicle AUC. EC50s based on AUC are generated using the non-linear regression log(agonist) vs. response function in Prism software (Graphpad) with HillSlope fixed=1.
If a test agent increases the AUC of the forskolin-stimulated IEQ relative to vehicle in CF-HBE cells, and this increase is inhibited by CFTR inhibitor-172, then the test agent is considered a CFTR corrector. TECC assay efficacy is expressed as the ratio of the test agent AUC divided by DMSO vehicle AUC. As set forth in Table 2 below, a TECC value less than 12 is marked “A”; a value between 12-20 is marked “B”; a value between 20 and 80 is marked “C”. […]

T2 sequence (P13569 with tags, fused parts or gaps DEL508-508): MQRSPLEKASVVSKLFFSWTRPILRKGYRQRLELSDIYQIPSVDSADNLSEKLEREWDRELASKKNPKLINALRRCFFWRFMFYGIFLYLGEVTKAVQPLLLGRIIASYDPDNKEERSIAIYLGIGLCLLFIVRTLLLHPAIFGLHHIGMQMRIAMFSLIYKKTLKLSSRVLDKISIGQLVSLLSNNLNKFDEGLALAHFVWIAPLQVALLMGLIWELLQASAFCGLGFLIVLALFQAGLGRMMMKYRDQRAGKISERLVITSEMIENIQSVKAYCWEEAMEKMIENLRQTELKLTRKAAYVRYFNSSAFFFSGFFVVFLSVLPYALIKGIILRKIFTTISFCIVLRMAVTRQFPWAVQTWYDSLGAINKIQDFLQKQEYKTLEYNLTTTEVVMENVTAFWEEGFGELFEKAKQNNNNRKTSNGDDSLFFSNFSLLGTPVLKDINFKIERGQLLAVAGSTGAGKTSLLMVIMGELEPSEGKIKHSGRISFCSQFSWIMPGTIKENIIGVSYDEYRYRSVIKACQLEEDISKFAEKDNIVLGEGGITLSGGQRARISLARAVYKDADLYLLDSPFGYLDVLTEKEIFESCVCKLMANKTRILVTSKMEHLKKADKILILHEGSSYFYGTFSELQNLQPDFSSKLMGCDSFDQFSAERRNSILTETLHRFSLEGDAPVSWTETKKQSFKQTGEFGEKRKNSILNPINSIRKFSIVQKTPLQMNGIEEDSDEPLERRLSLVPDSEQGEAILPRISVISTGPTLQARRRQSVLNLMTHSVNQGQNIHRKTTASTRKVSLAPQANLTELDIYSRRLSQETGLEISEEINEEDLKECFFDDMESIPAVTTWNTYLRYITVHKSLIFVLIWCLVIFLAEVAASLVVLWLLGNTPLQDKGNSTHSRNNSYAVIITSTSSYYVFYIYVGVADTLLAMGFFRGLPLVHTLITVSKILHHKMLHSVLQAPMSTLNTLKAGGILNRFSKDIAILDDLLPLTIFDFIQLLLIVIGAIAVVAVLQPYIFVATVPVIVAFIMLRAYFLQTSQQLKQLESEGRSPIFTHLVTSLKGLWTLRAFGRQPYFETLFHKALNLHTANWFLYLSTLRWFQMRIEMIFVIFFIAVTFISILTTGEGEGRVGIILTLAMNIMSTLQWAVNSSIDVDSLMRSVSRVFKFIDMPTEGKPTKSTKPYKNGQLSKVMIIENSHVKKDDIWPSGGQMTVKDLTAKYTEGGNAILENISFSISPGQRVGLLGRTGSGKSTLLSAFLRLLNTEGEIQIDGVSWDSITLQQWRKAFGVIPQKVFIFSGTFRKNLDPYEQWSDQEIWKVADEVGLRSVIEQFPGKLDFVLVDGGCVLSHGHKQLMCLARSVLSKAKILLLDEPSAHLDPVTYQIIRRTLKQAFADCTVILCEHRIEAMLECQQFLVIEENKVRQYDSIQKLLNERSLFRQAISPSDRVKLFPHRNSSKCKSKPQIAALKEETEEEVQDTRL
T1 sequence (P13569 423-646 limits assumed): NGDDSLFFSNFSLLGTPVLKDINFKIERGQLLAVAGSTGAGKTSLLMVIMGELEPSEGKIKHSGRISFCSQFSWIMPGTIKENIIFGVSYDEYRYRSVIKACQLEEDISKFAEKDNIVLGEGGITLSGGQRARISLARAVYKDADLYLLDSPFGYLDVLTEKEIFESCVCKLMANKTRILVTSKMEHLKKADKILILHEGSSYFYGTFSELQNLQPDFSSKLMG

| Compound | DSLS 3D (100 μM ΔT) [1] | TECC (AUC, 10 μM) [2] |
| --- | --- | --- |
| Cn1nc2nc1-c1cc(ccn1)Cc1c(F)cc3[nH]ccc3c1CCS(=O)(=O)CC(C)(C)CCC[C@]2(C)c1cccc(CC(C)(C)C(=O)O)c1 (racemic) [Compound 295, 2,2-dimethyl-3-[3-[rac-(6R)-22-fluoro-3,6,10,10-tetramethyl-12,12-dioxo-12λ6-thia-3,4,19,28,30-pentazapentacyclo[23.3.1.12,5.015,23.016,20]triaconta-1(29),2(30),4,15,17,20,22,25,27-nonaen-6-yl]phenyl]propanoic Acid] | B (a value above 5 °C and less than or equal to 10 °C is marked “B”) | B (a value between 12-20 is marked “B”) |
| [2H]C([2H])([2H])n1nc2nc1-c1cc(ccc1F)Oc1c(F)cc3[nH]ccc3c1CCS(=O)(=O)CC(C)(C)CCCC2(C)c1cccc(OCC(=O)O)c1 (single isomer, unassigned) [Compound 1A, 2-[3-[22,28-Difluoro-6,10,10-trimethyl-12,12-dioxo-3-(trideuteriomethyl)-24-oxa-12λ^6-thia-3,4,19,30-tetrazapentacyclo[23.3.1.1^2,5.0^15,23.0^16,20]triaconta-1(29),2(30),4,15,17,20,22,25,27-nonaen-6-yl]phenoxy]acetic Acid] | C (a value greater than 10 °C and less than or equal to 25 °C is marked “C”) | C (a value between 20 and 80 is marked “C”) |
| [2H]C([2H])([2H])n1nc2nc1-c1cc(ccc1F)Oc1c(F)cc3[nH]ccc3c1CCS(=O)(=O)CC(C)(C)CCCC2(C)c1cccc(OCC(=O)O)c1 (single isomer, unassigned) [Compound 1B, 2-[3-[22,28-Difluoro-6,10,10-trimethyl-12,12-dioxo-3-(trideuteriomethyl)-24-oxa-12λ^6-thia-3,4,19,30-tetrazapentacyclo[23.3.1.1^2,5.0^15,23.0^16,20]triaconta-1(29),2(30),4,15,17,20,22,25,27-nonaen-6-yl]phenoxy]acetic Acid] | A (an ΔTagg value less than or equal to 5 °C is marked “A”) | A (a TECC value less than 12 is marked “A”) |
| Cn1nc2nc1-c1cc(ccc1F)Oc1c(F)cc3[nH]ccc3c1CCS(=O)(=O)CCC(F)(F)CCC2(C)c1cccc(CCC(=O)O)c1 (single isomer, unassigned) [Compound 2A, 3-[3-(9,9,22,28-Tetrafluoro-3,6-dimethyl-12,12-dioxo-24-oxa-12λ^6-thia-3,4,19,30-tetrazapentacyclo[23.3.1.1^2,5.0^15,23.0^16,20]triaconta-1(29),2(30),4,15,17,20,22,25,27-nonaen-6-yl)phenyl]propanoic Acid] | B (a value above 5 °C and less than or equal to 10 °C is marked “B”) | B (a value between 12-20 is marked “B”) |
| Cn1nc2nc1-c1cc(ccc1F)Oc1c(F)cc3[nH]ccc3c1CCS(=O)(=O)CCC(F)(F)CCC2(C)c1cccc(CCC(=O)O)c1 (single isomer, unassigned) [Compound 2B, 3-[3-(9,9,22,28-Tetrafluoro-3,6-dimethyl-12,12-dioxo-24-oxa-12λ^6-thia-3,4,19,30-tetrazapentacyclo[23.3.1.1^2,5.0^15,23.0^16,20]triaconta-1(29),2(30),4,15,17,20,22,25,27-nonaen-6-yl)phenyl]propanoic Acid] | A (an ΔTagg value less than or equal to 5 °C is marked “A”) | A (a TECC value less than 12 is marked “A”) |
| Cn1nc2nc1-c1cc(ccc1F)Oc1c(F)cc3[nH]ccc3c1CCS(=O)(=O)CC(C)(C)CCCC2(C)c1cccc(CCO)c1 (single isomer, unassigned) [Compound 4A, 2-[3-(22,28-Difluoro-3,6,10,10-tetramethyl-12,12-dioxo-24-oxa-12λ^6-thia-3,4,19,30-tetrazapentacyclo[23.3.1.1^2,5.0^15,23.0^16,20]triaconta-1(29),2(30),4,15,17,20,22,25,27-nonaen-6-yl)phenyl]ethanol] | C (a value greater than 10 °C and less than or equal to 25 °C is marked “C”) | C (a value between 20 and 80 is marked “C”) |
